Test results taken from article PMC10840383, “Clinical features, functional consequences, and rescue pharmacology of missense GRID1 and GRID2 human variants” (Human Molecular Genetics, 2023).
Changes are numbered by the printed parent chain.

Assays:
Format in all cases: cell-based
GluD2-T649A = target: T1, GluD2-T649A (Rattus norvegicus, UniProt Q63226, T649A); experiment: TEVC of constitutive current, Xenopus oocytes expressing GluD2-T649A; settings: for IC50: inhibitors of constitutively active GluD2 current, read-out: T649A IC50
T1 construct: expressed in transfected cells; host or cells: Xenopus laevis oocytes injected with cRNA
T1 sequence (Q63226 24-1007 T649A): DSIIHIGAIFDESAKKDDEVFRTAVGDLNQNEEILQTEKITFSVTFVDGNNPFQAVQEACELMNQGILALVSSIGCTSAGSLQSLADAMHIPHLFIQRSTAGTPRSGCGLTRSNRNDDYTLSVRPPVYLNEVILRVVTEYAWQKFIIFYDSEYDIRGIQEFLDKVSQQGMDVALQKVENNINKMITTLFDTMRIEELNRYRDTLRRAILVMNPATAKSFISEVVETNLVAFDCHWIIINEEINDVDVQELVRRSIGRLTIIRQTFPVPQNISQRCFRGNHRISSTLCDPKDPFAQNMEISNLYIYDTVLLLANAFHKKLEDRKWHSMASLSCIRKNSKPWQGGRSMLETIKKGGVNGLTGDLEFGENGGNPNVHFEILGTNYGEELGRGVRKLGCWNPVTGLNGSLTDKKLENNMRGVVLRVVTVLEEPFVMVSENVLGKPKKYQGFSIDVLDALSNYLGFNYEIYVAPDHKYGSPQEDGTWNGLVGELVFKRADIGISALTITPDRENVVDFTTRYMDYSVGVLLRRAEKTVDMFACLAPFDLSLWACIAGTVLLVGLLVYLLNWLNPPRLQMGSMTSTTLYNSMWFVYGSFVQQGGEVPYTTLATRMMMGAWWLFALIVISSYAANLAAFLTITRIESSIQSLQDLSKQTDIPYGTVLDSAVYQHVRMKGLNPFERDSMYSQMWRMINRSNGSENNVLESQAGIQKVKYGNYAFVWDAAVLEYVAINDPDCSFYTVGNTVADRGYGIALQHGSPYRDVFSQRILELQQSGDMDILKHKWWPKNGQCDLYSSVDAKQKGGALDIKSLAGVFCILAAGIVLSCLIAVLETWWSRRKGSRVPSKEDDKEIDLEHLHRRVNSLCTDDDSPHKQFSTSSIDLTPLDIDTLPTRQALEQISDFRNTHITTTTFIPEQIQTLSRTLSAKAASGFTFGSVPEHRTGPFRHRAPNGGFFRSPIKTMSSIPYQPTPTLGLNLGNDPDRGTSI

GluD2-A654T = target: T2, GluD2-A654T (Rattus norvegicus, UniProt Q63226, A654T); experiment: TEVC of constitutive current, Xenopus oocytes expressing GluD2-A654T (lurcher); settings: for IC50: inhibitors of constitutively active GluD2 current, read-out: A654T IC50
T2 construct: expressed in transfected cells; host or cells: Xenopus laevis oocytes injected with cRNA
T2 sequence (Q63226 24-1007 A654T): T1 sequence (Q63226 24-1007 T649A) with A626T, A631T

[1] = system: constitutively active GluD1 and GluD2 receptor variants; experiment: Inhibition of constitutive currents of GluD variants by channel blockers, Xenopus oocytes
Method: Xenopus laevis oocytes were prepared from ovaries purchased from Xenopus 1 (Dexter, MI) as previously described, [68] and incubated at 16°C in culture Barth’s solution (in mM) 88 NaCl, 2.4 NaHCO3, 1 KCl, 0.33 Ca(NO3)2, 0.41 CaCl2, 0.82 MgSO4, 10 HEPES, pH 7.4 with NaOH, supplemented with 1 U/ml penicillin and 1 μg/ml streptomycin. Oocytes were injected with approximately 5–40 ng RNA per oocyte and then incubated at 16–19°C for 1–3 days in culture Barth’s solution. The levels of GluD2-A654D and GluD2-A654T cRNA were reduced to 1.5 ng and 2.5 ng, respectively, due to oocyte toxicity. Two-electrode voltage clamp (TEVC) recordings were performed as previously described. Unless otherwise specified, extracellular solution contained (in mM) 90 NaCl, 3 KCl, 0.5 BaCl2, 0.01 EDTA, 10 HEPES, and was brought to pH 7.4 with NaOH. The oocytes were placed in a dual track recording chamber and gravity perfused with solution exchange controlled via a computer-driven 8-valve positioner (Digital MVP Valve). […] Recording electrodes were filled with 0.3 M KCl, and currents were recorded with membrane voltage held at −40 mV. To establish constitutive activity of recombinant receptors when compared to wild type receptors, we used the oocyte recording solution described above, but with 90 mM N-methyl-D-glucamine (NMDG) chloride replacing 90 mM NaCl. […] In addition to establishing constitutive activity, 90 mM NMDG was used in recording protocols with drug treatment to obtain the percent maximum theoretical inhibition of a compound, or to determine the relative degree of drug potentiation. For Ca^2+ concentration-response curves, choline chloride was used to maintain equimolar concentrations of Cl^− ions in the extracellular solution across the changing concentrations of calcium chloride. All compounds used in this study for concentration-response oocyte recordings were dissolved in deionized water as 50–100 mM stock solutions. In some rescue pharmacology experiments, we substituted 1 mM CaCl2 for 0.5 mM BaCl2 to evaluate Ca^2+-dependent control of receptor responses.

| Structure (SMILES) | Effect on constitutive current, in words (GluD2-T649A) | Fold-shift (IC50 A654T/IC50 T649A) (GluD2-T649A) | IC50 (GluD2-T649A) [µM] | Effect on constitutive current, in words (GluD2-A654T) | IC50 (GluD2-A654T) [µM] | Inhibition of constitutive currents, in words [1] |
| --- | --- | --- | --- | --- | --- | --- |
| N[C@@H](CC(=O)O)C(=O)O [L-Aspartic Acid, L-aspartic acid] | inhibited | 19 | 270 | inhibited | 5000 |  |
| C[C@@H](N)C(=O)O [D-Alanine, D-alanine] | inhibited | 1.2 | 1300 | inhibited | 1600 |  |
| CNC1(c2ccccc2Cl)CCCCC1=O (stereo not shown) [ketamine] |  |  |  |  |  | memantine inhibits GluD receptor constitutively active currents more effectively than ketamine |
| NCC(=O)O [Glycine] | inhibited |  |  | inhibited |  |  |
